Each compound was assayed against PolQ ATPase enzyme (1-894) (Homo sapiens (Human), UniProt O75417) (assay: Polθ ATPase enzymatic assay (0.5 nM enzyme concentration), ADP-Glo). Conditions: average IC50; 0.5 nM PolQ ATPase enzyme (1-894).
Format: biochemical
Protocol: PolQ ATPase enzyme (1-894) at 0.5 nM is incubated with a 10-point concentration response of inhibitors for 15 min at rt in the following buffer: 50 mM Tris Cl pH 7.5, 10% glycerol, 5 mM DTT, 10 mM MgCl2, 0.1 mg/ml BSA. Following pre-incubation with inhibitors, DNA (Fork C) at 20 nM and ATP at 100 μM are added to start the reaction. Enzymatic reaction proceeds at rt for 180 min ATP consumption is measured using the ADP-Glo assay from Promega. Luminescence is read on the Envision and IC50 are determined using the variable slope 4-parameters equation.
Oligos are annealed by heating at 9500 for 5 min in the following buffer (10 mM Tris-HCl pH7.5, 50 mM NaCl, 1 mM EDTA) and cooled to rt. […]

Sequence of PolQ ATPase enzyme (1-894) (O75417 1-894): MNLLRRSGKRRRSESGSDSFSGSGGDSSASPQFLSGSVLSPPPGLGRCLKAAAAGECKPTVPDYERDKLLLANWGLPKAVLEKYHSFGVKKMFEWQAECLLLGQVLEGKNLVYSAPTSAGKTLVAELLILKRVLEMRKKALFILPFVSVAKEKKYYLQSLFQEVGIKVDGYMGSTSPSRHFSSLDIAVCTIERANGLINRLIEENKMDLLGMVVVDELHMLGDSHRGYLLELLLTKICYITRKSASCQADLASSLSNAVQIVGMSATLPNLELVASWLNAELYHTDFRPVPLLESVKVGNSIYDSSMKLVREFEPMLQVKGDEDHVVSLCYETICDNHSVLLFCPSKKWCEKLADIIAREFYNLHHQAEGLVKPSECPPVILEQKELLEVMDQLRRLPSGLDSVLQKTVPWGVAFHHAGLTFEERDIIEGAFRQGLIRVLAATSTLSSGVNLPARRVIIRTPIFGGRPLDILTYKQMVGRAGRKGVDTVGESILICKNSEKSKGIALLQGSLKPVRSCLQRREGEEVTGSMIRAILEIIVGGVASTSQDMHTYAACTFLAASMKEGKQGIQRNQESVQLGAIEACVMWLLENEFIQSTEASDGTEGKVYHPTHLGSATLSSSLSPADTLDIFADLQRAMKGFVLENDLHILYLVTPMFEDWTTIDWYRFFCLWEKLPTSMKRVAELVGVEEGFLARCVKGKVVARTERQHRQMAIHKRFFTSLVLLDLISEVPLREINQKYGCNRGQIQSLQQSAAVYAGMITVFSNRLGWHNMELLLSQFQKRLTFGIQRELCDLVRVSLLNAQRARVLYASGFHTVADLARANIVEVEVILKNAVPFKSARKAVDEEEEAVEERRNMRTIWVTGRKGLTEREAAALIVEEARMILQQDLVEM

SMILES	IC50
COc1cnc(C(F)F)cc1-c1cc(-n2ccc(C)cc2=O)ncc1C(=O)Nc1nnc(C#CC2CC2)s1 [Compound 387, N-(5-(cyclopropylethynyl)-1,3,4-thiadiazol-2-yl)-2″-(difluoromethyl)-5″-methoxy-4-methyl-2-oxo-2H-[1,2′:4′,4″-terpyridine]-5′-carboxamide]	< 0.25 nM
COc1cnc(C(F)F)cc1-c1cc(N2CCO[C@@H](C)C2=O)ncc1C(=O)Nc1nnc(C#CC2CC2)s1 [Compound 174]	< 0.25 nM
COc1cnc(C(F)F)cc1-c1cc(N2CCN(C)CC2=O)ncc1C(=O)Nc1nnc(C#CC2CC2)s1 [Compound 194]	0.61 nM
COc1cnc(C(F)F)cc1-c1cc(N2CCN(C)C3(CC3)C2=O)ncc1C(=O)Nc1nnc(C#CC2CC2)s1 [Compound 432, N-(5-(cyclopropylethynyl)-1,3,4-thiadiazol-2-yl)-2′-(difluoromethyl)-5′-methoxy-6-(4-methyl-8-oxo-4,7-diazaspiro[2.5]octan-7-yl)-[4,4′-bipyridine]-3-carboxamide]	< 0.25 nM
COc1cnc(Cl)nc1-c1cc(-c2nnc(C)o2)ccc1C(=O)Nc1nnc(C#CC2CC2)s1 [Compound 402]	0.88 nM
COc1cnc(C(F)F)cc1-c1cc(N2CCC(C)(O)CC2)ncc1C(=O)Nc1nnc(C#CC2CC2)s1 [Compound 121]	2 nM
COc1cnc(C(F)F)cc1-c1cc(N2C(=O)[C@@H]3CC[C@H]2C3)ncc1C(=O)Nc1nnc(C#CC2CC2)s1 [Compound 368]	7.1 nM
COc1cnc(C(F)F)cc1-c1cc(-c2cnn(CCO)c2)ccc1C(=O)Nc1nnc(C#CC2CC2)s1 [Compound 134]	< 0.25 nM
COc1cnc(C(F)F)cc1-c1cc(-c2nnc(C)o2)ccc1C(=O)Nc1nnc(C2C[C@H]2c2ccc(C#N)cc2)s1 (stereo partly drawn) [Compound 168]	0.34 nM
COc1cnc(C(F)F)cc1-c1cc(C#N)ccc1C(=O)Nc1nnc(C#CC2CC2)s1 [Compound 251]	0.45 nM
C#C[C@H]1CC1c1nnc(NC(=O)c2ccc(-c3nnc(C)o3)cc2-c2cc(C(F)F)ncc2OC)s1 (stereo partly drawn) [Compound 373]	4.6 nM
COc1ccc(C(F)(F)F)cc1-c1cc(CC(=O)N(C)C)ncc1C(=O)Nc1nnc(C#CC2CC2)s1 [Compound 33, N-(5-(cyclopropylethynyl)-1,3,4-thiadiazol-2-yl)-6-(2-(dimethylamino)-2-oxoethyl)-4-(2-methoxy-5-(trifluoromethyl)phenyl)nicotinamide]	< 0.25 nM
COc1cnc(C(F)F)cc1-c1cc(-n2ccnc2)ncc1C(=O)Nc1nnc(C#CC2CC2)s1 [Compound 262]	0.29 nM
C#CC1CC1c1nnc(NC(=O)c2ccc(N3CCOCC3=O)cc2-c2cc(C(F)F)ncc2OC)s1 (stereo not drawn) [Compound 397]	0.39 nM
COc1ccc(C(F)(F)F)cc1-c1cc(N2CCN(C)C2=O)ncc1C(=O)Nc1nnc(C#CC2CC2)s1 [Compound 281]	20 nM
COc1cnc(C(F)F)cc1-c1cc(CC(=O)N(C)C)ccc1C(=O)Nc1nnc(C#CC2CC2)s1 [Compound 265]	< 0.25 nM
COc1cnc(C(F)F)cc1-c1cc(OCC2CCOCC2)ncc1C(=O)Nc1nnc(C#CC2CC2)s1 [Compound 150, N-(5-(cyclopropylethynyl)-1,3,4-thiadiazol-2-yl)-2′-(difluoromethyl)-5′-methoxy-6-((tetrahydro-2H-pyran-4-yl)methoxy)-[4,4′-bipyridine]-3-carboxamide]	< 0.25 nM
COc1cnc(C(F)F)cc1-c1cc(CC(=O)N2CC(F)(F)C2)ncc1C(=O)Nc1nnc(C#CC2CC2)s1 [Compound 446]	< 0.25 nM
Cc1cnc(C(F)F)cc1-c1cnccc1C(=O)Nc1nnc(C#CC2CC2)s1 [Compound 279]	1.5 nM
COc1cnc(C(F)F)cc1-c1cc(-c2cnn(C3CCOCC3)c2)ncc1C(=O)Nc1nnc(C#CC2CC2)s1 [Compound 355]	0.3 nM

SMILES	IC50
COc1cnc(C(F)F)cc1-c1cc(-n2ccc(C)c(F)c2=O)ncc1C(=O)Nc1nnc(C#CC2CC2)s1 [Compound 466]	< 0.25 nM
COc1cnc(C(F)F)cc1-c1cc(-n2cnc(C)c(C)c2=O)ncc1C(=O)Nc1nnc(C#CC2CC2)s1 [Compound 451]	< 0.25 nM
Cc1nnc(-n2cc(-c3cc(C(F)(F)F)ccc3Cl)c(C(=O)Nc3ncc(C#CC4CC4)s3)cc2=O)o1 [Compound 464]	< 0.25 nM
COc1cnc(C(F)F)cc1-c1cc(-c2cnn(S(C)(=O)=O)c2)ncc1C(=O)Nc1nnc(C#CC2CC2)s1 [Compound 393]	< 0.25 nM
COc1cnc(C(F)F)cc1-c1cc(-c2ccnn2C)ncc1C(=O)Nc1nnc(C#CC2CC2)s1 [Compound 127]	< 0.25 nM
CNC(=O)Cc1ccc(C(=O)Nc2nnc(C#CC3CC3)s2)c(-c2cc(C(F)F)ncc2OC)c1 [Compound 230]	< 0.25 nM
COc1cnc(C(F)F)cc1-c1cc(-c2ccn(C)n2)ncc1C(=O)Nc1nnc(C#CC2CC2)s1 [Compound 113, N-(5-(cyclopropylethynyl)-1,3,4-thiadiazol-2-yl)-2′-(difluoromethyl)-5′-methoxy-6-(1-methyl-1H-pyrazol-3-yl)-[4,4′-bipyridine]-3-carboxamide]	0.53 nM
COc1cnc(Cl)nc1-c1cc(-c2ccn(C)n2)ncc1C(=O)Nc1nnc(C#CC2CC2)s1 [Compound 417]	3.7 nM
COc1cnc(Cl)cc1-c1cc(N2CCN(C)C2=O)ccc1C(=O)Nc1nnc(C#CC2CC2)s1 [Compound 295]	2.7 nM
COc1cnc(C(F)F)cc1-c1cc(-c2nnc(N(C)C)o2)ccc1C(=O)Nc1nnc(C#CC2CC2)s1 [Compound 408]	1.4 nM
COc1ccc(Cl)nc1-c1cnccc1C(=O)Nc1nnc(C#CC2CC2)s1 [Compound 339]	3.4 nM
COc1cnc(C(F)F)cc1-c1cc(-c2cncn2C)ncc1C(=O)Nc1nnc(C#CC2CC2)s1 [Compound 405]	< 0.25 nM
COc1cnc(C(F)F)cc1-c1cc(-n2cc(C)ccc2=O)ncc1C(=O)Nc1nnc(C#CC2CC2)s1 [Compound 440]	< 0.25 nM
COc1cnc(C(F)F)cc1-c1cc(-c2cnccn2)ncc1C(=O)Nc1nnc(C#CC2CC2)s1 [Compound 172]	1.5 nM
COc1cnc(C(F)(F)F)cc1-c1cn(C)c(=O)cc1C(=O)Nc1nnc(C#CC2CC23CC3)s1 (stereo not drawn) [Compound 58]	0.91 nM
C#C[C@@H]1CC1c1nnc(NC(=O)c2cnc(-c3ccn(C)n3)cc2-c2cc(C(F)F)ncc2OC)s1 (stereo partly drawn) [Compound 154]	< 0.25 nM
COc1cnc(C(F)F)cc1-c1cc(-c2cnn(C3CCN(C)CC3)c2)ncc1C(=O)Nc1nnc(C#CC2CC2)s1 [Compound 399]	1.5 nM
COc1cnc(C(F)F)cc1-c1cc(-n2cccc(C)c2=O)ncc1C(=O)Nc1nnc(C#CC2CC2)s1 [Compound 437]	< 0.25 nM
COc1cnc(C(F)F)cc1-c1cc(OCc2ccn(C)n2)ncc1C(=O)Nc1nnc(C#CC2CC2)s1 [Compound 183]	0.49 nM
COc1cnc(C)cc1-c1cnccc1C(=O)Nc1nnc(C#CC2CC2)s1 [Compound 70]	2.5 nM

SMILES	IC50
COc1cnc(C(F)F)cc1-c1cc(-n2ccc(Cl)cc2=O)ncc1C(=O)Nc1nnc(C#CC2CC2)s1 [Compound 459]	< 0.25 nM
COc1cnc(C(F)F)cc1-c1cc(C#CC2(O)CCOCC2)ccc1C(=O)Nc1nnc(C#CC2CC2)s1 [Compound 283]	< 0.25 nM
COc1cnc(C(F)F)cc1-c1cc(N2CCCCC2=O)ccc1C(=O)Nc1nnc(C#CC2CC2)s1 [Compound 212]	< 0.25 nM
COc1cnc(C(F)F)cc1-c1cc(CO)ncc1C(=O)Nc1nnc(C#CC2CC2)s1 [Compound 272]	1.2 nM
COc1cnc(C(F)F)cc1-c1cc(CC(=O)N2CC(F)(F)C2)ccc1C(=O)Nc1nnc(C#CC2CC2)s1 [Compound 195]	< 0.25 nM
COc1cnc(C(F)F)cc1-c1cc(N2CCN(C(=O)OC(C)C)CC2=O)ncc1C(=O)Nc1nnc(C#CC2CC2)s1 [Compound 382]	< 0.25 nM
COc1cnc(C(F)F)cc1-c1cc(CC(=O)N(C)C)ncc1C(=O)Nc1ncc(C#CC2CC2)s1 [Compound 200]	< 0.25 nM
COc1cnc(C(F)F)cc1-c1cc(-n2cccn2)ncc1C(=O)Nc1nnc(C#CC2CC2)s1 [Compound 261]	0.62 nM
COc1cnc(C(F)F)cc1-c1cc(-n2cc(F)c(C)cc2=O)ncc1C(=O)Nc1nnc(C#CC2CC2)s1 [Compound 414]	< 0.25 nM
COc1cnc(C(F)F)cc1-c1cc(-c2ccncn2)ncc1C(=O)Nc1nnc(C#CC2CC2)s1 [Compound 135]	< 0.25 nM
COc1cnc(C(F)F)cc1-c1cc(C(=O)N(C)C)ccc1C(=O)Nc1nnc(C#CC2CC2)s1 [Compound 258]	2.9 nM
COc1cnc(C(F)F)cc1-c1cc(OC[C@@H]2CCC(=O)N2C)ncc1C(=O)Nc1nnc(C#CC2CC2)s1 [Compound 147]	0.31 nM
COc1cnc(C(F)F)cc1-c1cc(C#CCN2CCOCC2)ncc1C(=O)Nc1nnc(C#CC2CC2)s1 [Compound 218]	0.25 nM
COc1ccc(C(F)(F)F)cc1-c1cn(C2COC2)c(=O)cc1C(=O)Nc1nnc(C#Cc2cc(C)[nH]n2)s1 [Compound 78]	2.71 nM
COc1ccc(C(F)F)cc1-c1cc(C#N)ncc1C(=O)Nc1nnc(C#CC2CC2)s1 [Compound 321]	0.41 nM
COc1cnc(C(F)F)cc1-c1cc(CC(=O)N2CC(F)(F)C2)ncc1C(=O)Nc1ncc(C#CC2CC2)s1 [Compound 447]	< 0.25 nM
COc1cnc(C(F)F)cc1-c1cc(-c2cn(C)nc2F)ncc1C(=O)Nc1nnc(C#CC2CC2)s1 [Compound 416]	0.69 nM
COc1cnc(C(F)F)cc1-c1cc(-c2cnn(C)c2)ncc1C(=O)Nc1nnc(C#CC2CC2)s1 [Compound 252]	< 0.25 nM
COc1ccc(C(F)(F)F)cc1-c1cn(C)c(=O)cc1C(=O)Nc1nnc(C#CC2CC23CC3)s1 (stereo not drawn) [Compound 60]	1.1 nM
COc1cnc(C(F)F)cc1-c1cc(-n2cc(N)c(C)cc2=O)ncc1C(=O)Nc1nnc(C#CC2CC2)s1 [Compound 454]	1.1 nM

Reference: patent publication US20250026748A1, “N-(5-SUBSTITUTED-[(1,3,4-THIADIAZOLYL) OR (THIAZOLYL)])(SUBSTITUTED)CARBOXAMIDE COMPOUNDS AND USE THEREOF FOR INHIBITING HUMAN POLYMERASE THETA” (Repare Therapeutics Inc., priority 2021, published 2025)
